Where two headings read alike, the source gives them in different places.
How the values were obtained:
Experiment in all cases: Kinase panel profiling at 1 µmol/L (MSA or IMAP), percentage inhibition
Format in all cases: biochemical
[1] = target: T1, panel of 255 wild-type kinases (Homo sapiens, UniProt P54762); settings: kinase EPHB1; 1 µmol/L single concentration; read-out: %-inhibition at 1 µmol/L, EPHB1
T1 sequence (P54762 18-984): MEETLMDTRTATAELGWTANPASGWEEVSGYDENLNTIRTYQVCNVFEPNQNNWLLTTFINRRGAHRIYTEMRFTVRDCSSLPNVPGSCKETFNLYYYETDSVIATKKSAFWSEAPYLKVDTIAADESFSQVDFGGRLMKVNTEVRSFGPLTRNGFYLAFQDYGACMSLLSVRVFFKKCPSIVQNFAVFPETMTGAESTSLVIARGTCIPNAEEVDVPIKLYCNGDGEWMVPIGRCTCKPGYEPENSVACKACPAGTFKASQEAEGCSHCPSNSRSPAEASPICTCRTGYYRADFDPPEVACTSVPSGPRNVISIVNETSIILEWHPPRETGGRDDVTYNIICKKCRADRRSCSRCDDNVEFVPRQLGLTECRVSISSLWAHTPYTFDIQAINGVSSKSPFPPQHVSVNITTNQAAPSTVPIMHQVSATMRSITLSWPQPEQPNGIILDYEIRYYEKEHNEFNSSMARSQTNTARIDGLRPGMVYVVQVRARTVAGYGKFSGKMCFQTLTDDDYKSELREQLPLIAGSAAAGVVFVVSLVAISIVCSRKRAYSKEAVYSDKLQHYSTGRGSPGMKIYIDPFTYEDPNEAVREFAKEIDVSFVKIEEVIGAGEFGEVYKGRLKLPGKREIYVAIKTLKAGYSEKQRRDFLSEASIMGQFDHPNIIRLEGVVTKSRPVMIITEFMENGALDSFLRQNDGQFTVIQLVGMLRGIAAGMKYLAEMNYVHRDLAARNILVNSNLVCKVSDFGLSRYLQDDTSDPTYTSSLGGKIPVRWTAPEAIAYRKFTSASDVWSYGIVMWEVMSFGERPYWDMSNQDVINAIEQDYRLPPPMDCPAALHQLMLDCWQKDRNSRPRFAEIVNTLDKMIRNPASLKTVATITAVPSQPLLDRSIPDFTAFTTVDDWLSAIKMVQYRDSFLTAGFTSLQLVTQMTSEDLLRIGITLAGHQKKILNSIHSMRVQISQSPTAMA

[2] = system: panel of 255 wild-type kinases; settings: for %-inhibition at 1 µmol/L, FYN [isoform b]: kinase FYN [isoform b]; for %-inhibition at 1 µmol/L, FYN [isoform b] / %-inhibition at 1 µmol/L, LYNb / %-inhibition at 1 µmol/L, PKCβ2 / %-inhibition at 1 µmol/L, SRM: 1 µmol/L single concentration; for %-inhibition at 1 µmol/L, LYNb: kinase LYNb; for %-inhibition at 1 µmol/L, PKCβ2: kinase PKCβ2; for %-inhibition at 1 µmol/L, SRM: kinase SRM
[3] = target: T2, panel of 255 wild-type kinases (Homo sapiens, UniProt P54753); settings: kinase EPHB3; 1 µmol/L single concentration; read-out: %-inhibition at 1 µmol/L, EPHB3
T2 sequence (P54753 34-998): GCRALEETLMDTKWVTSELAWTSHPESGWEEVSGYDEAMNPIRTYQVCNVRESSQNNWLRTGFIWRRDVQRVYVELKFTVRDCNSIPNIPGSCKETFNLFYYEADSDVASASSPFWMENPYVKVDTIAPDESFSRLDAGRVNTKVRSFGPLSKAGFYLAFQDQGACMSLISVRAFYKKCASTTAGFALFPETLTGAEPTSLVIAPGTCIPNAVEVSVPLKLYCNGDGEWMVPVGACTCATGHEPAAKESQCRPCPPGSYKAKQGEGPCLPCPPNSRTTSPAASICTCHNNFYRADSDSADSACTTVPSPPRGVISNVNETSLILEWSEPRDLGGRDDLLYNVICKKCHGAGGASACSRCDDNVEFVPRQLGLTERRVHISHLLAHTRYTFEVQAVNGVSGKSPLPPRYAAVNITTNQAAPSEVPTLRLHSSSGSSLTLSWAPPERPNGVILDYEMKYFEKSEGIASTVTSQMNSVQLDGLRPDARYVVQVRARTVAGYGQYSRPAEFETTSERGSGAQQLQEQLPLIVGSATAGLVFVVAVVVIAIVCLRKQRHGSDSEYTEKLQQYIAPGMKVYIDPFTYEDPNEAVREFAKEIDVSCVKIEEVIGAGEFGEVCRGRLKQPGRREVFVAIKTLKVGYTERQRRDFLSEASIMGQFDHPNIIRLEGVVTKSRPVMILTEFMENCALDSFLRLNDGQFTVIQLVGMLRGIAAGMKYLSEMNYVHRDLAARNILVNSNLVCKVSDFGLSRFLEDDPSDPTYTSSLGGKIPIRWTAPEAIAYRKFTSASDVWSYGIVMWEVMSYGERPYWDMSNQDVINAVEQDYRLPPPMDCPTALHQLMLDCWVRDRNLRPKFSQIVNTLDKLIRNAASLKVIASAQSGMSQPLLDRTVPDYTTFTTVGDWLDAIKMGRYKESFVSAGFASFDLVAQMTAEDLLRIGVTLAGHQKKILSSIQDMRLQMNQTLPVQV

[4] = target: panel of 255 wild-type kinases (Homo sapiens, UniProt P06213); settings: kinase INSR; 1 µmol/L single concentration; read-out: %-inhibition at 1 µmol/L, INSR
[5] = target: panel of 255 wild-type kinases (Homo sapiens, UniProt Q16288); settings: kinase TRKC; 1 µmol/L single concentration; read-out: %-inhibition at 1 µmol/L, TRKC
[6] = target: T3, panel of 255 wild-type kinases (Homo sapiens, UniProt Q96PF2); settings: kinase TSSK2; 1 µmol/L single concentration; read-out: %-inhibition at 1 µmol/L, TSSK2
T3 sequence (Q96PF2 1-358): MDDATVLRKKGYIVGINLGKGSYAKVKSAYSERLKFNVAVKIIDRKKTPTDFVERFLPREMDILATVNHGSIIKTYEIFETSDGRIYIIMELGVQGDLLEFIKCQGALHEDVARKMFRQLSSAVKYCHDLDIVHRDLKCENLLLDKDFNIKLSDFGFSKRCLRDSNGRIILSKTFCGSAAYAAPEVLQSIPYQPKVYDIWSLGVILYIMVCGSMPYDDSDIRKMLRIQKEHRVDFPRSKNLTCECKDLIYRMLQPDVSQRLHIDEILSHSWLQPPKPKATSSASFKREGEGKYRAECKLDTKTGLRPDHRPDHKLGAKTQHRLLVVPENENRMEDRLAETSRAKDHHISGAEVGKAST

[7] = target: panel of 255 wild-type kinases (Homo sapiens, UniProt P24941); settings: 1 µmol/L single concentration
[8] = CDK2/CycA2 kinase assay, read-out: %-inhibition CDK2/CycA2
[9] = CDK2/CycE1 kinase assay, read-out: %-inhibition CDK2/CycE1

Structure (SMILES) | kinases inhibited by more than 50% ([2]; 1 µmol/L inhibitor) | number of the 255 profiled kinases inhibited by more than 50% ([2]; 1 µmol/L inhibitor) | inhibition at 1 µM [1] [%] | %-inhibition at 1 µmol/L, FYN [isoform b] [2] [%] | %-inhibition at 1 µmol/L, LYNb [2] [%] | %-inhibition at 1 µmol/L, PKCβ2 [2] [%] | %-inhibition at 1 µmol/L, SRM [2] [%] | inhibition at 1 µM [3] [%] | inhibition at 1 µM [4] [%] | inhibition at 1 µM [5] [%] | inhibition at 1 µM [6] [%] | inhibition at 1 µM [7, 8] [%] | inhibition at 1 µM [7, 9] [%]
CCN1CCN(c2ccc(Nc3cc(N(C)C(=O)Nc4c(Cl)c(OC)cc(OC)c4Cl)ncn3)cc2)CC1 [infigratinib] |  |  | 2.8 | 43 | 84 | 1.5 | -2.75 | -1 | 17 | 6 | -3.74 | 11 | -33
CCN1C(=O)N(c2c(F)c(OC)cc(OC)c2F)Cc2cnc3[nH]c(CN4CCOCC4)cc3c21 [pemigatinib] |  |  | -3 | 14 | 64 | -1.57 | -3.44 | -2.52 | 9 | -0.168 | -3.21 | 3.55 | 7
FC(F)(F)c1ccc(CNc2ccc(Cc3c[nH]c4ncc(Cl)cc34)cn2)cn1 [pexidartinib] |  |  | 11 | 1.3 | 19 | 3.47 | 0.409 | -7 | 17 | 81 | -0.308 | 12 | -4
CCn1c(=O)c(-c2cc(NC(=O)Nc3ccccc3)c(F)cc2Br)cc2cnc(NC)cc21 [ripretinib] |  |  | 92 | 33 | 85 | -0.488 | 32 | 59 | 1.55 | 54 | -3.73 | -11 | -12
Cn1cnc2c(F)c(Nc3ccc(Br)cc3Cl)c(C(=O)NOCCO)cc21 [selumetinib] |  |  | -0.927 | -1.85 | 7 | -2 | -1.41 | -3 | 3 | 10 | -4.25 | 1.44 | -55
Cc1cc(Nc2ncnc3ccc(NC4=NC(C)(C)CO4)cc23)ccc1Oc1ccn2ncnc2c1 [tucatinib] |  |  | 0.25 | -1.06 | 6 | -1.5 | 2.77 | -5.68 | 3 | 2.53 | -0.922 | -0.285 | -36
C=CC(=O)N1CCC([C@@H]2CCNc3c(C(N)=O)c(-c4ccc(Oc5ccccc5)cc4)nn32)CC1 [zanubrutinib] |  |  | -2 | 22 | 55 | -1.66 | 58 | -1.32 | 4 | -3.55 | 0.571 | -2.82 | -15

Further lines, with some results ahead:

kinases inhibited by more than 50% ([2]; 1 µmol/L inhibitor) | number of the 255 profiled kinases inhibited by more than 50% ([2]; 1 µmol/L inhibitor) | Structure (SMILES) | inhibition at 1 µM [1] [%] | %-inhibition at 1 µmol/L, FYN [isoform b] [2] [%] | %-inhibition at 1 µmol/L, LYNb [2] [%] | %-inhibition at 1 µmol/L, PKCβ2 [2] [%] | %-inhibition at 1 µmol/L, SRM [2] [%] | inhibition at 1 µM [3] [%] | inhibition at 1 µM [4] [%] | inhibition at 1 µM [5] [%] | inhibition at 1 µM [6] [%] | inhibition at 1 µM [7, 8] [%] | inhibition at 1 µM [7, 9] [%]
TRKA, TRKB, TRKC, ROS1, and ACK1 |  | O=C(Nc1cnn2ccc(N3CCC[C@@H]3c3cc(F)ccc3F)nc12)N1CC[C@H](O)C1 [larotrectinib] | -0.531 | 1.64 | 1.48 | -2 | -3.2 | -0.506 | 2 | 101 | -0.476 | -2.44 | -18
 | 71 | CO[C@]1(C(=O)N[C@@H](C)c2ccc(-n3cc(F)cn3)nc2)CC[C@H](c2nc(C)cc(Nc3cc(C)[nH]n3)n2)CC1 [pralsetinib] | 58 | 30 | 89 | -1.78 | 13 | -0.435 | 10 | 98 | 8 | 66 | 58
 | 46 | COc1ccc(CN2C3CC2CN(c2ccc(-c4cc(OCC(C)(C)O)cn5ncc(C#N)c45)cn2)C3)cn1 [selpercatinib] | 98 | 10 | 52 | -1.06 | -1.55 | -0.598 | 1.51 | 10 | -0.889 | 0.89 | -15

Source: PMC9516332 (Frontiers in Oncology, 2022)
